Measured values: patent publication US20250127787A1, “METHODS FOR TREATING PERIPHERAL NEUROPATHY” (University of Pittsburgh - Of the Commonwealth System of …, priority 2021, published 2025)
Entries after “also recorded” stand apart in the source; their conditions may differ.

Assays:
[1] = system: isolated mitochondria from spinal cord (L3-L5) homogenates; experiment: Mitochondrial respiration (respiratory control ratio) in CYP-CIPN rat spinal cord; assay type: in vivo; settings: oral 8-AG
Protocol: Animals. This study employed female Harlan Sprague Dawley (HSD) rats (3-4 mo; Envigo, Indianapolis, IN) and were divided into the following groups: 1) Control, 2) Cyclophosphamide (CYP, 75 mg/kg i.p. in saline vehicle; administered on days 0, 3 and 6); 3) 8-aminoguanine (8-AG; 5 mg/kg/day in drinking water; beginning 2 weeks prior to CYP and continuing until sacrifice (day 8)). The dose of 8-AG is based on our preliminary and published experiments. […] The investigation conforms to the Guide for the Care and Use of Laboratory Animals published by the US National Institutes of Health (NIH Publication No. 85-23, revised 1996). In addition, all tissues (dorsal root ganglion, spinal cord, peripheral nerves and hindpaw epidermis) were removed from isoflurane anesthetized rats and the tissue was used for various experimental approaches as described below. At the end of tissue removal, animals were sacrificed by thoracotomy.
Mitochondrial Respiration. Homogenates (peripheral nerve and/or spinal cord) were used to measure mitochondrial respiration. Mitochondria were isolated as described earlier with modifications. […] The respiratory control ratio (RCR), a measure of the “tightness of coupling” between electron transport and oxidative phosphorylation, was determined from ratio of state 3 to state 4 rates of respiration. […]

[2] = system: CD68; experiment: CD68 expression in PAC-CIPN rat spinal cord, Western immunoblotting; assay type: in vivo; settings: 8-AG 5 mg/kg/day in drinking water
Protocol: Animals: This study employed female Harlan Sprague Dawley (HSD) rats (3-4 mo; Envigo, Indianapolis, IN) and were divided into the following groups: 1) Control, 2) Cyclophosphamide (CYP, 75 mg/kg i.p. in saline vehicle; administered on days 0, 3 and 6 until sacrifice on day 8); 4) Paclitaxel (2 mg/kg i.p., 2 mg/kg i.p. in saline from a stock solution of 50/50 CremophorEL/ethanol); administered on days 0, 2, 4 and 6 until sacrifice on day 8; 4) 8-aminoguanine (8-AG; 5 mg/kg/day in drinking water; beginning 2 weeks prior to either CYP or PAC and continuing until sacrifice (day 8)). The dose of 8-AG was based on the experiments described above. […] All tissues (spinal cord and hindpaw epidermis) were removed from isoflurane anesthetized rats and the tissue was used for various experimental approaches as described below. At the end of tissue removal, animals were sacrificed by thoracotomy. […]

Q: Which results are given for `Nc1nc2[nH]c(N)nc2c(=O)[nH]1` [8-AG, 8-Aminoguanine]?
A: effect on CYP-induced decrease in respiratory control ratio (RCR) [1]: reversed to values similar to Control; also recorded: prevented; effect on PAC-induced increase in CD68 expression [2]: significantly reduced
